In patent US20250082630A1, “METHODS OF TREATING BRAIN TUMOURS AND NEUROBLASTOMAS” (AstraZeneca AB, priority 2021, published 2025):
Read-outs that look alike come from different tables or passages of the source. Each block holds one compound with its values, some of them ahead of it.

Key:
[1] = Determination of Kpuu in rat; format: in vivo, Han Wistar rats; conditions: intravenous infusion; for Kp uu at 4 h: Han Wistar, rat, brain and plasma (unbound brain-to-plasma ratio), 2 µmols/kg/h; for Rat Kpuu: 4 h, brain/plasma unbound
Experimental: The fraction unbound was determined using the RED Device.
Compounds were prepared as 10 mM solutions in DMSO. […] If less than 9 test compounds were included then the addition volume of blank DMSO was added to make up volume to 40 uL.
Frozen plasma was thawed in a water bath at 37° C. Plasma was then centrifuged for 2 minutes at 4,000 rpm to remove clots and collect supernatant into a fresh tube. The pH of the plasma was checked and only used if within the range of pH 7 to pH 8. 3 μL of the working solution of each cassette was added to 597 μL of blank plasma and vortexed for 5 minutes at 1000 rpm. The final percent volume of organic solvent is 0.5% and the final concentration for test compound was 5 μM. Immediately transfer 50 μL of the spiked plasma suspension to a 96-well plate to act as T=0 control sample. The samples are treated the same as the samples after incubation. The remaining plasma is kept at 37° C. prior to starting the dialysis.
Place inserts open end up into the wells of the base plate. Add 300 μL of spiked plasma sample into the sample chamber, indicated by the red ring. Add 500 μL of phosphate buffer (pH 7.4) to the buffer chamber. Cover the unit with gas permeable lid and incubate for 18 hours at 37° C. at 300 rpm with 5% CO2 on an orbital shaker in the CO2 incubator. At the end of incubation, remove lid and pipette 50 μL of post-dialysis samples from both buffer and plasma chambers into separated 96-well plate for analysis, respectively.
Samples were matrix matched by adding 50 μL of blank rat plasma to the buffer samples and an equal volume of PBS to the collected plasma samples and vortexed to mix. 400 μL of acetonitrile containing an appropriate internal standard (IS) was added to precipitate protein and release compound and mixed by vortexing the plate for 10 minutes followed by centrifugation for 30 minutes at 4,000 rpm. 250 μL of the supernatant was transferred to new 96-well plates and centrifuged again (4,000 rpm, 30 minutes). 100 μL of the supernatant was then transferred to new 96-well plates and mixed with 100 μL of distilled water to each sample by vortex for 5 minutes at 1,000 rpm. Samples were analysed by LC-MS/MS and drug concentrations were determined vs a calibration curve produced from spiked blank plasma with a typical range of 1-7500 nM.
The % unbound was determined as % Unbound=(Conc. buffer chamber/Conc. plasma chamber)×100%. Fraction unbound=% unbound/100.
The principle for the method for the determination of volume unbound in brain slices has previously been published (Development of a High-Throughput Brain Slice Method for Studying Drug Distribution in the Central Nervous System; Fridén et al; Drug Metabolism and Disposition, 2009, 37 (6) 1226-1233). In brief:
Compound stock solutions were prepared in DMSO at the concentration of 10 mM. […] If less than 9 test compounds were included, then blank DMSO was added to make up volume to 40 uL. On the day of the experiment 4 ul was diluted in 40 mL ECF buffer to give a 100 nM solution of each test compounds which was then pre-warmed to 37° C. before the start of the incubation.
To prepare brain slices, rats weighing approximately 300 g were terminally anesthetised with isoflurane by inhalation, the brain carefully removed and immersed in ice-cold oxygenated ECF buffer. The rat brain was transferred to a dish containing ice-cold, 02 supplied ECF buffer and trimmed with razor before gluing to the tray of a microslicer with the brain placed with the back section surface down centrally on the tray. Ice cold ECF buffer was added to harden the glue and wet the brain. The tray was placed in the microslicer and using a suitable cutting speed, 100-400 μm were cut slices until the striatum area appeared. Four to six for each brain, 300 μm thick, coronal slices of striatum areas were cut and placed in ice cold 02 supplied buffer until incubation. Six slices were transferred to the incubation tray containing 40 mL pre warmed (37° C.) cassette mixture. […]

PARP5a = PARP5a (Homo sapiens (Human), UniProt O95271); experiment: PARP fluorescence anisotropy binding assay, PARP5a
Experimental: Recombinant PARP5a binding domain was diluted to 160 nM with 50 mM Tris pH 8, 0.001% Triton X100, 10 mM MgCl2, 150 mM NaCl and incubated for four hours with an equivalent volume of 6 nM fluorescent probe diluted with 50 mM Tris pH 8, 0.001% Triton X100, 10 mM MgCl2, 150 mM NaCl. The final DMSO concentration of the probe was kept below 1% (v/v).
(§2) Fluorescence anisotropy of the probe when bound to the proteins was measured using a BMG Pherastar FSX® in the presence of test compounds or solvent control and the effect on anisotropy determined. % inhibition values for different test compound concentrations were calculated and fitted to a four parameter logistic plot in order to determine the IC50 value. Where necessary, the compound K, can be determined from the IC50 value using a Munson Rodbard equation defined in Anal Biochem. 1980 Sep.

MDR1 and BCRP = experiment: In vitro human transporter efflux (MDCK-MDR1-BCRP); conditions: human, pH 7.4
Experimental: MDCKII cells expressing MDR1 and BCRP were seeded onto polyethylene membranes in 96-well Transwell insert systems at a density to form a confluent cell monolayer. […] The final percent volume of the organic solvent was less than 1%. Permeation of the test compounds from A to B direction and from B to A direction was determined over a 90-min incubation at 37° C. and 5% CO2 with a relative humidity of 95%. At the end of the incubation, samples from the apical and basolateral side were taken and then precipitated with cold acetonitrile containing internal standard. After centrifugation at 4000 rpm, the supernatant was diluted with 0.1% formic acid aqueous solution and quantified by LC-MS/MS. The integrity of the cell monolayers was confirmed by using the marker Lucifer yellow.
The permeability coefficient (1×10-6 cm/s) was calculated using the following equation
(1) The Efflux Ratio was Calculated Using the Following Equation
Efflux ratio=Papp(B to A)/Papp(A to B)
(2) where dCr/dt is the cumulative concentration of the compound in the receiver chamber as a function of time (in μM/s); Vr is the solution volume in the receiver chamber (0.1 ml on the apical side and 0.3 ml on the basolateral side); A is the surface area for the transport, that is, 0.11 cm2 for the area of the monolayer; and C0 is the initial concentration in the donor chamber (in μM).

PARP3 = PARP3 (Homo sapiens (Human), UniProt Q9Y6F1); experiment: PARP fluorescence anisotropy binding assay, PARP3
Experimental: Recombinant full length PARP3 protein was diluted to 100 nM with 50 mM Tris pH 8, 0.001% Triton X100, 10 mM MgCl2, 150 mM NaCl and incubated for four hours with an equivalent volume of 6 nM fluorescent probe diluted with 50 mM Tris pH 8, 0.001% Triton X100, 10 mM MgCl2, 150 mM NaCl. The final DMSO concentration of the probe was kept below 1% (v/v).

PARP1 = PARP1 (Homo sapiens (Human), UniProt P09874); experiment: PARP fluorescence anisotropy binding assay, PARP1
Experimental: Recombinant full length 6HIS tagged PARP1 protein was diluted to 6 nM with 50 mM Tris pH 8, 0.001% Triton X100, 10 mM MgCl2, 150 mM NaCl and incubated for four hours with an equivalent volume of 2 nM fluorescent probe diluted with 50 mM Tris pH 8, 0.001% Triton X100, 10 mM MgCl2, 150 mM NaCl. The final DMSO concentration of the probe was kept below 1% (v/v).
as §2

PARP2 = PARP2 (Homo sapiens (Human), UniProt Q9UGN5); experiment: PARP fluorescence anisotropy binding assay, PARP2
Experimental: Recombinant full length PARP2 protein was diluted to 6 nM with 50 mM Tris pH 8, 0.001% Triton X100, 10 mM MgCl2, 150 mM NaCl and incubated for four hours with an equivalent volume of 2 nM fluorescent probe diluted with 50 mM Tris pH 8, 0.001% Triton X100, 10 mM MgCl2, 150 mM NaCl. The final DMSO concentration of the probe was kept below 1% (v/v).
(§1) Fluorescence anisotropy of the probe when bound to the proteins was measured using a BMG Pherastar FSX® in the presence of test compounds or solvent control and the effect on anisotropy determined. % inhibition values for different test compound concentrations were calculated and fitted to a four parameter logistic plot in order to determine the IC50 value.

PARP6 = PARP6 (Homo sapiens (Human), UniProt Q2NL67); experiment: PARP fluorescence anisotropy binding assay, PARP6
Experimental: Recombinant full length GST tagged PARP6 protein was diluted to 160 nM with 50 mM Tris pH 8, 0.001% Triton X100, 10 mM MgCl2, 150 mM NaCl and incubated for four hours with an equivalent volume of 6 nM fluorescent probe diluted with 50 mM Tris pH 8, 0.001% Triton X100, 10 mM MgCI2, 150 mM NaCl. The final DMSO concentration of the probe was kept below 1% (v/v).
as §1, with “value. Where necessary, the compound K, can be determined from the IC50 value using a Munson Rodbard equation defined in Anal Biochem. 1980 Sep. 1; 107(1):220-39 and is based on the known KD of the probe binding to the relevant PARP protein” for “value.”

hERG = hERG (Homo sapiens (Human), UniProt Q12809); experiment: hERG IC50
BRCA2 (−/−) DLD1 cells = experiment: PARP proliferation assay (7 day compound dosing), BRCA2 (−/−) DLD1; format: cell-based; conditions: Homo sapiens, DLD-1, 168 h, read-out: BRCA2 −/− DLD-1 prolif. 7 d IC50
Experimental: DLD1 and BRCA2 (−/−) DLD1 cells were harvested to a density of 5000 cells/ml and 2.5E4 cells/ml respectively in complete media, 40 μL/well seeded into 384-well plates (Greiner, Kremsmunster, Austria; 781090) using a Multidrop Combi then incubated at 37° C., 5% CO2 overnight. Next day (Day 1) using a Multidrop Combi add sytox green (5ul, 2 uM) and saponin (10 ul, 0.25% stock) to a day 0 plate, seal the plate using a black adhesive lid and incubate for >3 h at it. Cells were imaged using Cell Insight (Thermo Fisher) fitted with a 4x objective. Test compounds are added using an Echo 555 and placed in incubator maintained at 37° C., 5% CO2 and incubated for 7 days. On Day 8 add sytox green (5ul, 2 uM) and then saponin (10 ul, 0.25% stock) to plates, seal the plate using a black adhesive lid and incubate for >3 h at it. Read all cells on the Cell Insight with 4× Objective. The rate of proliferation is determined in Genedata by assessing the total cell number output from the Cell Insight for Day 0 and Day 8 plates.

U87MG xenograft = format: in vivo, female Nude mice
Experimental: U87MG cells (2.5 million in serum-free MEM medium) were implanted subcutaneously (SC) into the dorsal flank of female Nude mice (weight greater than 18 g). Tumours were measured (length x width) two times weekly by bilateral Vernier calliper measurements and tumour volume was calculated using elliptical formula (π/6×width×width×length). Animal bodyweight and tumour condition were monitored throughout the study. Mice were randomised into treatment groups when mean tumour volume reached approximately 0.2 cm^3.
Animals were treated orally (PO) from the day after the randomisation. Control animals were treated with vehicle (water/methane sulfonic acid (MSA) pH3-3.2) once daily for 10 days (QD×10). PARP inhibitor in water/MSA pH3-3.2 was dosed in the monotherapy and combination groups at 3 mg/kg QD×10 or QD×33, respectively. Temozolomide (TMZ) in OraPlus Perrigo was dosed in the monotherapy group at 25 mg/kg QD on days 1-5 and 29-33, and in monotherapy and combination group at 6.25 mg/kg QD on days 1-5 and 29-33.
Tumour growth inhibition from start of treatment was assessed by comparison of the mean change in tumour volume (TV) of the control and treated groups and represented as percent tumour growth inhibition (TGI, when tumour volume (TV) >starting TV) or tumour regression (reg, when TV<starting TV). Statistical significance was evaluated using a one-tailed t test. Statistical significance is indicated as follows: *p:0.05, **p:0.01, ***p:0.001.

[2] = TMZ 6.25 mg/kg QD on days 1-5 and 29-33, PO
[3] = TMZ 25 mg/kg QD on days 1-5 and 29-33, PO

Sequence of PARP1 (P09874 whole entry): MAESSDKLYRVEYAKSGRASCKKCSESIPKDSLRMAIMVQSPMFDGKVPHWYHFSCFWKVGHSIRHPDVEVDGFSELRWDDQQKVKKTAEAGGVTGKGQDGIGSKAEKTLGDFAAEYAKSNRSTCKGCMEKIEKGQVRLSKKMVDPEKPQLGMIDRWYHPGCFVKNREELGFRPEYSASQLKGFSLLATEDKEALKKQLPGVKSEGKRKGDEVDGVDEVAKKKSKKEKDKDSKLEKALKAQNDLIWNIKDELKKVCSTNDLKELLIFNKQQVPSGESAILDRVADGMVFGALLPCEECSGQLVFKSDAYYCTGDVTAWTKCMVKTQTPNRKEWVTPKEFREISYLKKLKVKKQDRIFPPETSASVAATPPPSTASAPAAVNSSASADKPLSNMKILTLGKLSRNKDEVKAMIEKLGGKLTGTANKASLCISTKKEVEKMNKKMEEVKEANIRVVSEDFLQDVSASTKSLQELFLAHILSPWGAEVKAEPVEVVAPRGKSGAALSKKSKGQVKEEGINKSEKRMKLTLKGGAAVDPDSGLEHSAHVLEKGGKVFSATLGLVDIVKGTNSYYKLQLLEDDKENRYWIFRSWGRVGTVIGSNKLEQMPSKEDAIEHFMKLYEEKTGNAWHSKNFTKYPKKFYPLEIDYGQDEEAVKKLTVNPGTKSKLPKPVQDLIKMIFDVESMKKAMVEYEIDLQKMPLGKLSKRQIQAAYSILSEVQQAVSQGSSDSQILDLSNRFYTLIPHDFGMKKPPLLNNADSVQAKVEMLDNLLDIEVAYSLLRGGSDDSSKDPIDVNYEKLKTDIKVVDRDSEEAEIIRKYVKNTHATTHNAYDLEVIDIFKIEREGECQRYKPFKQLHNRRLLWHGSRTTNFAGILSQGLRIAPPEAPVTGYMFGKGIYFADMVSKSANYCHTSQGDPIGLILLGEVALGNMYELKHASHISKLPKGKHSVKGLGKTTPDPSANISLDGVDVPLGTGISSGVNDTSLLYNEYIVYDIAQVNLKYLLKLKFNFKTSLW
Sequence of PARP3 (Q9Y6F1 whole entry): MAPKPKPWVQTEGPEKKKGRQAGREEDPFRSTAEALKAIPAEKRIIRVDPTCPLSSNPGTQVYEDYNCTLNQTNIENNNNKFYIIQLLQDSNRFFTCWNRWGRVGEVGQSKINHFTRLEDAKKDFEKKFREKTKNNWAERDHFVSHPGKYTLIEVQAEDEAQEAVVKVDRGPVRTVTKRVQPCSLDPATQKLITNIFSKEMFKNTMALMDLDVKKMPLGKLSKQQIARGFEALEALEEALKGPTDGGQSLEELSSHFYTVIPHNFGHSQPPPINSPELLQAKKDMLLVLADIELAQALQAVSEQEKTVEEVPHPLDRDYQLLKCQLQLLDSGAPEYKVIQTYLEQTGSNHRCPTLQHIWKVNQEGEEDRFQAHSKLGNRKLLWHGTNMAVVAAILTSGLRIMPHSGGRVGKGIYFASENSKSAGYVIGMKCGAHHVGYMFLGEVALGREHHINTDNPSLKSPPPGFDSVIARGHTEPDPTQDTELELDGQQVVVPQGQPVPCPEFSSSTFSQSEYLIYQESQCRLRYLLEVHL
Sequence of PARP6 (Q2NL67 whole entry): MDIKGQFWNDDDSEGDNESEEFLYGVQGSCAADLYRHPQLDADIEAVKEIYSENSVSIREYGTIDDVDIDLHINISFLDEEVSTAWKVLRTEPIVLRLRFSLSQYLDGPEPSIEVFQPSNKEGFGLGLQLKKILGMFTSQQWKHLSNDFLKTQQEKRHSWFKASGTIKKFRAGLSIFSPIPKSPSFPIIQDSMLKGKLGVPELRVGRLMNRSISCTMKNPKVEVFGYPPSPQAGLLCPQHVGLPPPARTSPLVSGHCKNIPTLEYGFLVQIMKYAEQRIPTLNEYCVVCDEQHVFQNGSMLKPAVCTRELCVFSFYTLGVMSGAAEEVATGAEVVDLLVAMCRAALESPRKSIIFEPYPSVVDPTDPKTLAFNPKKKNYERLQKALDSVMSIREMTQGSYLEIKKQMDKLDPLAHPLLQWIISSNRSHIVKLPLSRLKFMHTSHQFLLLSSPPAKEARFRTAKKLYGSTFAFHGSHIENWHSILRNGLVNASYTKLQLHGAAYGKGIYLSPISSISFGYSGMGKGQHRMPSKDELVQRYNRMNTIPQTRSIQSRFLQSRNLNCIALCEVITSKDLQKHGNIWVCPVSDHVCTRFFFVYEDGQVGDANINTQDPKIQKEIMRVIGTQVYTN
Sequence of PARP5a (O95271 1112-1317): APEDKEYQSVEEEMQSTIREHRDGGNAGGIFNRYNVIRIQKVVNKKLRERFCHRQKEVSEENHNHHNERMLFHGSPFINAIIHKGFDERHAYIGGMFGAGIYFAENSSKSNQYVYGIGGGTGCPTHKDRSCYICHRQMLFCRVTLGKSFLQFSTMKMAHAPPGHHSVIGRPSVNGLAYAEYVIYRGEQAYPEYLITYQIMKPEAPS
Sequence of PARP2 (Q9UGN5 whole entry): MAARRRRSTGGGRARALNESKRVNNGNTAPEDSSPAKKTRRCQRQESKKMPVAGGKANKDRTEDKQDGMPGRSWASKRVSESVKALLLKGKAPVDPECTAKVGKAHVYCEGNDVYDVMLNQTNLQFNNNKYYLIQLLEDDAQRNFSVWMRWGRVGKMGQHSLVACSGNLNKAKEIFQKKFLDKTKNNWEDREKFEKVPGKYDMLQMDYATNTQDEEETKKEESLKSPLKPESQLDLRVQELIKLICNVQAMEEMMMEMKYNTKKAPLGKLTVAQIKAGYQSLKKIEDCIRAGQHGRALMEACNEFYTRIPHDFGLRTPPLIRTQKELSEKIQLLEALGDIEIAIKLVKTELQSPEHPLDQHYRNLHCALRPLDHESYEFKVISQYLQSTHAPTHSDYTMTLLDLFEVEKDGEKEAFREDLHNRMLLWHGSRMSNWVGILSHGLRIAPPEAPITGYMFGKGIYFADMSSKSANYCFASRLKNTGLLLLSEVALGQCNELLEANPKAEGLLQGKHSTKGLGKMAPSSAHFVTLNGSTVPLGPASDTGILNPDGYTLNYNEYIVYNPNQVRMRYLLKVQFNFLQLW
Sequence of hERG (Q12809 whole entry): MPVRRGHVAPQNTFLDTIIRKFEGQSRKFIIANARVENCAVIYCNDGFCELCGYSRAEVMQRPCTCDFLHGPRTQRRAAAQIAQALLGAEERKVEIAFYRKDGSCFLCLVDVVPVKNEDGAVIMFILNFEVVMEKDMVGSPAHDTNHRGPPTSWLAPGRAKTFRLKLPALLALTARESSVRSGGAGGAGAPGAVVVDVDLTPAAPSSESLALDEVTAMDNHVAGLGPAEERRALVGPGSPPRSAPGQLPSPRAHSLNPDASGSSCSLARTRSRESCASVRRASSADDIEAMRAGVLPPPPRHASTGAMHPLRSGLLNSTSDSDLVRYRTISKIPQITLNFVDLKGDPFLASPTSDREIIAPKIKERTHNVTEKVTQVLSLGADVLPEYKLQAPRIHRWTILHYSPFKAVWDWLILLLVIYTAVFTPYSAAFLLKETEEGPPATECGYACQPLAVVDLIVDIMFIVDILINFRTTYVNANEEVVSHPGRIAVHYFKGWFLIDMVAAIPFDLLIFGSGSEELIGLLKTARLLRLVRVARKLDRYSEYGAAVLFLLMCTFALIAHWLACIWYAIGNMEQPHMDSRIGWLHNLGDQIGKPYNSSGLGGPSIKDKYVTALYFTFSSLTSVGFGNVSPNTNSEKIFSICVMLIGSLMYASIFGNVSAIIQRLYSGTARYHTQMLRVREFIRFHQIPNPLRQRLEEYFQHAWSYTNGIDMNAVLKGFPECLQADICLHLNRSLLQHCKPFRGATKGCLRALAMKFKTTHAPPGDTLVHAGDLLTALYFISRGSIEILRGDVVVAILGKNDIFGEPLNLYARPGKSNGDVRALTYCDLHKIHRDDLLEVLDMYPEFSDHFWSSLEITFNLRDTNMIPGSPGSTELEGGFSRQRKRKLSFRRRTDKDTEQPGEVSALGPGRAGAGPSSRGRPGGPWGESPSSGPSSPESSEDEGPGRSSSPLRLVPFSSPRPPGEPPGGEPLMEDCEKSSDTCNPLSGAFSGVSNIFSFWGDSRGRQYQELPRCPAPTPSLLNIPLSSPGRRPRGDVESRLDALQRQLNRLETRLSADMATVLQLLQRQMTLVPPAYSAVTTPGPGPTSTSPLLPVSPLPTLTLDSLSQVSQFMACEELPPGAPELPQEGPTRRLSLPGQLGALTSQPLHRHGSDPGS

Kp uu at 4 h [1]: 0.07
IC50 (PARP5a): > 100 µM
efflux ratio at 90 min (MDR1 and BCRP): 0.7
IC50 (PARP3): > 100 µM
IC50 (PARP1): 4 nM
IC50 (PARP2): > 70 µM
IC50 (PARP6): > 100 µM
SMILES: CNC(=O)c1ccc(N2CCN(Cc3ccc4nc(C)c(=O)[nH]c4c3C)CC2)c(F)n1 [Example 1, 5-[4-[(2,5-dimethyl-3-oxo-4H-quinoxalin-6-yl)methyl]piperazin-1-yl]-6-fluoro-N-methyl-pyridine-2-carboxamide]

IC50 (PARP1): 5 nM
SMILES: CNC(=O)c1ccc(N2CCN(Cc3ccc4nc(C)c(=O)[nH]c4c3Cl)CC2)c(C)n1 [Example 18, 5-[4-[(5-chloro-2-methyl-3-oxo-4H-quinoxalin-6-yl)methyl]piperazin-1-yl]-N,6-dimethyl-pyridine-2-carboxamide]
IC50 (hERG): 14 µM

Kp uu at 4 h [1]: 0.62
IC50 (PARP5a): > 100 µM
efflux ratio at 90 min (MDR1 and BCRP): 0.8
IC50 (PARP3): > 100 µM
IC50 (PARP1): 5 nM
IC50 (PARP2): > 67 µM
IC50 (PARP6): > 100 µM
SMILES: CCc1nc2ccc(CN3CCN(c4ccc(C(=O)NC)nc4C)CC3)c(F)c2[nH]c1=O [Example 23, 5-[4-[(2-ethyl-5-fluoro-3-oxo-4H-quinoxalin-6-yl)methyl]piperazin-1-yl]-N,6-dimethyl-pyridine-2-carboxamide]

Rat Kpuu [1]: 0.43
IC50 (PARP5a): > 100 µM
IC50 (PARP3): > 100 µM
IC50 (PARP6): > 100 µM
SMILES: CCc1nc2ccc(CN3CCN(c4ccc(C(=O)NC)nc4F)CC3)c(F)c2[nH]c1=O [Example 27, 5-[4-[(2-ethyl-5-fluoro-3-oxo-4H-quinoxalin-6-yl)methyl]piperazin-1-yl]-6-fluoro-N-methyl-pyridine-2-carboxamide]

IC50 (PARP1): 26 nM
IC50 (PARP2): > 100 µM
SMILES: CNC(=O)c1ccc(N2CCN(Cc3ccc4ncc(=O)[nH]c4c3F)CC2)c(Cl)n1 [Example 34, 6-chloro-5-[4-[(5-fluoro-3-oxo-4H-quinoxalin-6-yl)methyl]piperazin-1-yl]-N-methyl-pyridine-2-carboxamide]
IC50 (hERG): 29 µM

The remaining lines, values behind:

SMILES: CNC(=O)c1ccc(N2CCN(Cc3ccc4nc(C)c(=O)[nH]c4c3C)CC2)c(C)n1 [Example 4, 5-[4-[(2,5-dimethyl-3-oxo-4H-quinoxalin-6-yl)methyl]piperazin-1-yl]-N,6-dimethyl-pyridine-2-carboxamide]
Kp uu at 4 h [1]: 0.13
IC50 (PARP5a): > 100 µM
efflux ratio at 90 min (MDR1 and BCRP): 0.8
IC50 (PARP3): 78 µM
IC50 (PARP1): 5 nM
IC50 (PARP2): > 83 µM
IC50 (PARP6): > 100 µM

SMILES: CCc1nc2ccc(CN3CCN(c4ccc(C(=O)NC)nc4)CC3)c(F)c2[nH]c1=O [Example 29, 5-[4-[(2-ethyl-5-fluoro-3-oxo-4H-quinoxalin-6-yl)methyl]piperazin-1-yl]-N-methyl-pyridine-2-carboxamide]
Kp uu at 4 h [1]: 0.33
IC50 (PARP5a): > 100 µM
efflux ratio at 90 min (MDR1 and BCRP): 0.7
IC50 (PARP3): > 100 µM
IC50 (PARP1): 15 nM
IC50 (PARP2): > 100 µM
IC50 (PARP6): > 100 µM

SMILES: CNC(=O)c1ccc(N2CCN(Cc3ccc4nc(C)c(=O)[nH]c4c3F)CC2)c(C)n1 [Example 31, 5-[4-[(5-fluoro-2-methyl-3-oxo-4H-quinoxalin-6-yl)methyl]piperazin-1-yl]-N,6-dimethyl-pyridine-2-carboxamide]
Rat Kpuu [1]: 0.19
IC50 (PARP5a): > 100 µM
IC50 (BRCA2 (−/−) DLD1 cells): 7 nM
efflux ratio at 90 min (MDR1 and BCRP): 1.6
IC50 (PARP3): > 100 µM
IC50 (PARP1): 7 nM
IC50 (PARP2): > 100 µM
IC50 (PARP6): > 100 µM

SMILES: Cn1nnc2c(C(N)=O)ncn2c1=O [TMZ, Temozolomide]
tumour regression (U87MG xenograft; [2]): 28%
tumours regressed (U87MG xenograft; [2]): 2/8
tumour regression (U87MG xenograft; [3]): 92%
tumours regressed (U87MG xenograft; [3]): 7/8
